This is an account of results in patent US12331040B2 (Karyopharm Therapeutics Inc., priority 2013, dated 2025).

One may read the IC50 as the point on the concentration scale where inhibition reaches its midpoint.

Common to all, as to experiment: MTT cell proliferation assay
Common to all, as to type: cell-based
(Tetrazolium dyes change colour on reduction, which living cells bring about.)

One test deals with Z138 cells. Conditions: Homo sapiens, Z-138, Z138 cells, approximately 64-72 hours incubation. On the procedure: (§1) The MTT cell proliferation assay was used to study the cytotoxic properties of the compounds. The assay was performed according to the method described by Roche Molecular Biochemicals, with minor modifications. The assay is based on the cleavage of the tetrazolium salt, MTT, in the presence of an electron-coupling reagent. The water-insoluble formazan salt produced must be solubilized in an additional step. Cells grown in a 96-well tissue culture plate were incubated with the MTT solution for approximately 4 hours. After this incubation period, a water-insoluble formazan dye formed. After solubilization, the formazan dye was quantitated using a scanning multi-well spectrophotometer (ELISA reader). […] The cells were seeded at 5,000-10,000 cells in each well of 96-well plate in 100 μL of fresh culture medium and were allowed to attach overnight. The stock solutions of the compounds were diluted in 100 μL cell culture medium to obtain eight concentrations of each test compound, ranging from 1 nM to 30 μM. […] All optical densities were measured at 490 nm using a Vmax Kinetic Microplate Reader (Molecular Devices). In most cases, the assay was performed in duplicate and the results were presented as a mean percent inhibition to the negative control±SE. The following formula was used to calculate the percent of inhibition: Inhibition (%)=(1−(ODo/OD))×100.
(§2) The compounds were tested against MS751, Z138 and 3T3 cells. The MS751 cell line is derived from a metastasis to lymph node of human cervix from a patient diagnosed with squamous cell carcinoma of the cervix. The Z138 cell line is a mature B-cell acute lymphoblastic leukemia cell line derived from a patient with chronic lymphocytic leukemia. 3T3 cells are standard fibroblast cells; they were originally isolated from Swiss mouse embryo tissue.

A further test relates to MS751 cells. Conditions: Homo sapiens, MS751, MS751 cells, approximately 64-72 hours incubation. On the procedure:
as §1, §2

The subject of another test is 3T3 cells. Conditions: Mus musculus, NIH3T3, approximately 64-72 hours incubation. On the procedure:
as §1, §2

[1] abbreviates: read-out: MTT Assay IC50, Z-138.
[2] abbreviates: read-out: MTT Assay IC50, MS-751.
Setting [3] is: read-out: MTT Assay IC50 MS-751.

Read-outs that look alike come from different tables or passages of the source.

`Nc1ccc(/C=C/C(=O)NCc2cc3cc(-c4ccc(C(=O)N5CCC(F)(F)CC5)cc4)cc(OC(F)(F)F)c3o2)cn1` [Compound 686, (E)-3-(6-aminopyridin-3-yl)-N-((5-(4-(4,4-difluoropiperidine-1-carbonyl)phenyl)-7-(trifluoromethoxy)benzofuran-2-yl)methyl)acrylamide]: the IC50 is 0.1 to 5 µM in the test on Z138 cells (setting [1]); 0.1 to 5 µM in the test on MS751 cells (setting [2]); greater than 10 µM with 3T3 cells (read-out: MTT Assay IC50, 3T3).
On to `Nc1ccc(/C=C/C(=O)NCc2cc3cc(-c4ccc(C(=O)N5CCC(F)(F)CC5)cc4)cc(-c4ccc(F)c(Cl)c4)c3o2)cn1` [Compound 711, (E)-3-(6-aminopyridin-3-yl)-N-((7-(3-chloro-4-fluorophenyl)-5-(4-(4,4-difluoropiperidine-1-carbonyl)phenyl)benzofuran-2-yl)methyl)acrylamide], for which the IC50 in the test with Z138 cells (setting [1]) was less than 0.1 µM; in the test with MS751 cells (setting [2]), less than 0.1 µM; in the test on 3T3 cells (read-out: MTT Assay IC50, 3T3) it was 0.1 to 5 µM.
`Nc1ccc(/C=C/C(=O)NCc2cc3cc(-c4ccc(C(=O)N5CCC(C(F)(F)F)CC5)cn4)cc(C(F)(F)F)c3o2)cn1` [Compound 615, (E)-3-(6-aminopyridin-3-yl)-N-((7-(trifluoromethyl)-5-(5-(4-(trifluoromethyl)piperidine-1-carbonyl)pyridin-2-yl)benzofuran-2-yl)methyl)acrylamide]: the IC50 in the test with Z138 cells (read-out: MTT Assay IC50 Z-138) is 0.1 to 5 µM; in the test on MS751 cells (setting [3]) it was 0.1 to 5 µM; with 3T3 cells (read-out: MTT Assay IC50 3T3), greater than 10 µM.
Take `O=C(/C=C/c1cccnc1)NCc1cc2cc(-c3ccc(C(=O)N4CCC(F)(F)CC4)cn3)cc(-c3cccnc3)c2o1` [Compound 673, (E)-N-((5-(5-(4,4-difluoropiperidine-1-carbonyl)pyridin-2-yl)-7-(pyridin-3-yl)benzofuran-2-yl)methyl)-3-(pyridin-3-yl)acrylamide]: the IC50 with Z138 cells (setting [1]) was less than 0.1 µM; with MS751 cells (setting [2]), less than 0.1 µM; in the test with 3T3 cells (read-out: MTT Assay IC50, 3T3), less than 0.1 µM.
Take `Nc1ccc(/C=C/C(=O)NCc2cc3cc(-c4cccc(OC(=O)N5CCOCC5)c4)cc(C(F)(F)F)c3o2)cn1` [Compound 558, (E)-3-(2-((3-(6-aminopyridin-3-yl)acrylamido)methyl)-7-(trifluoromethyl)benzofuran-5-yl)phenyl morpholine-4-carboxylate]: the IC50 with Z138 cells (read-out: MTT Assay IC50 Z-138), in the test with MS751 cells (setting [3]) and in the test on 3T3 cells (read-out: MTT Assay IC50 3T3) was greater than 10 µM in each case.
As to `CN1C(=O)c2ccc(-c3cc(Cl)c4oc(CNC(=O)/C=C/c5ccc(N)nc5)cc4c3)cc2C1=O` [Compound 514, (E)-3-(6-aminopyridin-3-yl)-N-((7-chloro-5-(2-methyl-1,3-dioxoisoindolin-5-yl)benzofuran-2-yl)methyl)acrylamide], the IC50 with Z138 cells (read-out: MTT Assay IC50 Z-138) is 0.1 to 5 µM; in the test on MS751 cells (setting [3]), 5 to 10 µM; in the test on 3T3 cells (read-out: MTT Assay IC50 3T3) it was greater than 10 µM.
Regarding `O=C(/C=C/c1cccnc1)NCc1cc2cc(-c3ccc(C(=O)N4CC5(COC5)C4)cn3)cc(C(F)(F)F)c2o1` [Compound 689, (E)-N-((5-(5-(2-oxa-6-azaspiro[3.3]heptane-6-carbonyl)pyridin-2-yl)-7-(trifluoromethyl)benzofuran-2-yl)methyl)-3-(pyridin-3-yl)acrylamide], the concentration for half-maximal inhibition (IC50) in the test with Z138 cells (setting [1]) is less than 0.1 µM; in the test with MS751 cells (setting [2]), less than 0.1 µM; in the test with 3T3 cells (read-out: MTT Assay IC50, 3T3), 0.1 to 5 µM.
As for `Nc1ccc(/C=C/C(=O)NCc2cc3cc(-c4ncc(C(=O)N5CCC(F)(F)CC5)cc4F)cc(-c4ccc(F)cc4)c3o2)cn1` [Compound 764, (E)-3-(6-aminopyridin-3-yl)-N-((5-(5-(4,4-difluoropiperidine-1-carbonyl)-3-fluoropyridin-2-yl)-7-(4-fluorophenyl)benzofuran-2-yl)methyl)acrylamide], the IC50 is less than 0.1 µM in the test on Z138 cells (setting [1]); less than 0.1 µM with MS751 cells (setting [2]); 0.1 to 5 µM in the test on 3T3 cells (read-out: MTT Assay IC50, 3T3).
Regarding `Nc1ccc(/C=C/C(=O)NCc2cc3cc(-c4ccc(C(=O)NNc5cnccn5)cc4)cc(Cl)c3o2)cn1` [Compound 505, (E)-3-(6-aminopyridin-3-yl)-N-((7-chloro-5-(4-(2-(pyrazin-2-yl)hydrazine-1-carbonyl)phenyl)benzofuran-2-yl)methyl)acrylamide], the half-maximal inhibitory concentration (IC50) in the test on Z138 cells (read-out: MTT Assay IC50 Z-138) was 0.1 to 5 µM; with MS751 cells (setting [3]) it was 0.1 to 5 µM; with 3T3 cells (read-out: MTT Assay IC50 3T3), greater than 10 µM.
As for `Nc1ccc(/C=C/C(=O)NCc2cc3cc(-c4cnc(C(=O)N5CCOCC5)nc4)cc(Cl)c3o2)cn1` [Compound 546, (E)-3-(6-Aminopyridin-3-yl)-N-((7-chloro-5-(2-(morpholine-4-carbonyl)pyrimidin-5-yl)benzofuran-2-yl)methyl)acrylamide], the IC50 in the test with Z138 cells (read-out: MTT Assay IC50 Z-138) was 0.1 to 5 µM; in the test on MS751 cells (setting [3]), 0.1 to 5 µM; with 3T3 cells (read-out: MTT Assay IC50 3T3) it was greater than 10 µM.
Consider `CC1(C)CN(C(=O)c2ccc(-c3cc(Cl)c4oc(CNC(=O)/C=C/c5ccc(N)nc5)cc4c3)cc2)C1` [Compound 529, (E)-3-(6-aminopyridin-3-yl)-N-((7-chloro-5-(4-(3,3-dimethylazetidine-1-carbonyl)phenyl)benzofuran-2-yl)methyl)acrylamide], for which the values for the IC50 in the test with Z138 cells (read-out: MTT Assay IC50 Z-138), in the test with MS751 cells (setting [3]) and in the test on 3T3 cells (read-out: MTT Assay IC50 3T3) were 0.1 to 5 µM, 5 to 10 µM and greater than 10 µM, respectively.
For `Nc1ccc(/C=C/C(=O)NCc2nc3cc(-c4ccc(C(=O)N5CCOCC5)cc4)cc(Cl)c3o2)cn1` [Compound 501, (E)-3-(6-aminopyridin-3-yl)-N-((7-chloro-5-(4-(morpholine-4-carbonyl)phenyl)benzo[d]oxazol-2-yl)methyl)acrylamide], the IC50 is 0.1 to 5 µM with Z138 cells (read-out: MTT Assay IC50 Z-138), 0.1 to 5 µM in the test with MS751 cells (setting [3]) and greater than 10 µM in the test with 3T3 cells (read-out: MTT Assay IC50 3T3).
For `CC1(O)CCN(C(=O)c2ccc(-c3cc(C(F)(F)F)c4oc(CNC(=O)/C=C/c5ccc(N)nc5)cc4c3)nc2)CC1` [Compound 620, (E)-3-(6-aminopyridin-3-yl)-N-((5-(5-(4-hydroxy-4-methylpiperidine-1-carbonyl)pyridin-2-yl)-7-(trifluoromethyl)benzofuran-2-yl)methyl)acrylamide], the results for the 50% inhibitory concentration (IC50) in the test with Z138 cells (read-out: MTT Assay IC50 Z-138), with MS751 cells (setting [3]) and in the test on 3T3 cells (read-out: MTT Assay IC50 3T3) were less than 0.1 µM, less than 0.1 µM and greater than 10 µM, respectively.
On to `O=C(/C=C/c1cccnc1)NCc1cc2cc(-c3ccc(C(=O)N4CCC(F)(F)CC4)cc3F)cc(C(F)(F)F)c2o1` [Compound 684, (E)-N-((5-(4-(4,4-difluoropiperidine-1-carbonyl)-2-fluorophenyl)-7-(trifluoromethyl)benzofuran-2-yl)methyl)-3-(pyridin-3-yl)acrylamide], for which the IC50 in the test on Z138 cells (setting [1]) was 0.1 to 5 µM; with MS751 cells (setting [2]), 0.1 to 5 µM; with 3T3 cells (read-out: MTT Assay IC50, 3T3), greater than 10 µM.
Turning to `Nc1ccc(/C=C/C(=O)NCc2cc3cc(-c4ccc(C(=O)N5CCC(Cl)CC5)cc4)cc(C(F)(F)F)c3o2)cn1` [Compound 607, (E)-3-(6-aminopyridin-3-yl)-N-((5-(4-(4-chloropiperidine-1-carbonyl)phenyl)-7-(trifluoromethyl)benzofuran-2-yl)methyl)acrylamide], the IC50 in the test with Z138 cells (read-out: MTT Assay IC50 Z-138) is 0.1 to 5 µM; in the test with MS751 cells (setting [3]) it was 0.1 to 5 µM; with 3T3 cells (read-out: MTT Assay IC50 3T3), greater than 10 µM.
Turning to `Nc1ccc(/C=C/C(=O)NCc2cc3cc(-c4ccc(C(=O)N5CCC(F)(F)CC5)cc4)cc(-c4cc(Cl)c(F)cc4F)c3o2)cn1` [Compound 698, (E)-3-(6-aminopyridin-3-yl)-N-((7-(5-chloro-2,4-difluorophenyl)-5-(4-(4,4-difluoropiperidine-1-carbonyl)phenyl)benzofuran-2-yl)methyl)acrylamide], the half-inhibitory concentration (IC50) in the test on Z138 cells (setting [1]) is less than 0.1 µM; with MS751 cells (setting [2]), less than 0.1 µM; in the test with 3T3 cells (read-out: MTT Assay IC50, 3T3) it was 0.1 to 5 µM.
On to `Nc1ccc(/C=C/C(=O)NCc2cc3cc(-c4ccc(C(=O)N5CCC(F)(F)CC5)cc4)cc(-c4cccnc4)c3o2)cn1` [Compound 724, (E)-3-(6-aminopyridin-3-yl)-N-((5-(4-(4,4-difluoropiperidine-1-carbonyl)phenyl)-7-(pyridin-3-yl)benzofuran-2-yl)methyl)acrylamide], for which the half-maximal inhibitory concentration (IC50) was less than 0.1 µM in the test with Z138 cells (setting [1]); less than 0.1 µM in the test on MS751 cells (setting [2]); 0.1 to 5 µM in the test with 3T3 cells (read-out: MTT Assay IC50, 3T3).
For `Nc1ccc(/C=C/C(=O)NCc2cc3cc(-c4ccc(S(=O)(=O)N5CC[C@@H](F)C5)cc4)cc(Cl)c3o2)cn1` [Compound 527, (R,E)-3-(6-aminopyridin-3-yl)-N-((7-chloro-5-(4-(3-fluoropyrrolidin-1-ylsulfonyl)phenyl)benzofuran-2-yl)methyl)acrylamide], the IC50 was 0.1 to 5 µM with Z138 cells (read-out: MTT Assay IC50 Z-138), 0.1 to 5 µM in the test with MS751 cells (setting [3]) and greater than 10 µM in the test with 3T3 cells (read-out: MTT Assay IC50 3T3).
Regarding `Nc1ccc(/C=C/C(=O)NCc2cc3ccc(-c4ccc(C(=O)N5CCC(F)(F)CC5)cn4)cc3o2)cn1` [Compound 718, (E)-3-(6-Aminopyridin-3-yl)-N-((6-(5-(4,4-difluoropiperidine-1-carbonyl)pyridin-2-yl)benzofuran-2-yl)methyl)acrylamide], the IC50 is 0.1 to 5 µM in the test on Z138 cells (setting [1]); 0.1 to 5 µM in the test on MS751 cells (setting [2]); greater than 10 µM with 3T3 cells (read-out: MTT Assay IC50, 3T3).
